Patent US11040959B2, “Diprovocims: a new and potent class of TLR agonists” (The Scripps Research Institute, priority 2016, dated 2021)
Like-named read-outs stand apart in the source and are kept apart here. Blank lines part the entries; values can stand above or below the compound they belong to.

Experiments:
[1] = system: differentiated human THP-1 cells; test: stimulated release of TNF-α from differentiated human THP-1 cells (ELISA, dose-response); type: cell-based
Protocol: A screening campaign was conducted with nearly 100,000 compounds [(a) Whitby et al., Acc. Chem. Res. 2012, 45:1698-1709; and (b) Boger et al., Angew. Chem. Int. Ed. 2003, 42:4138-4176], using a newly developed functional assay that measured the stimulated release of TNF-α from treated human THP-1 cells partially differentiated along the macrophage line [unpublished results of the inventors and co-workers]. […] The libraries screened in the efforts represent a unique compound collection populated by nontraditional compounds [(a) Whitby et al., Acc. Chem. Res. 2012, 45:1698-1709; and (b) Boger et al., Angew. Chem. Int. Ed. 2003, 42:4138-4176] designed to target protein-protein [(a) Shaginian et al., J. Am. Chem. Soc. 2009, 131:5564-5572; and (b) Whitby et al., J. Am. Chem. Soc. 2011, 133:10184-10194] or protein-DNA interactions [Stover et al., J. Am. Chem. Soc. 2009, 131:3342-3348] as well as the major enzyme classes [Otrubova et al., Bioorg. Med. Chem. Lett. 2014, 24:3807-3813].
Hits were confirmed in an ELISA assay for stimulated TNF-α release from human PMA differentiated THP-1 cells and this assay was used for establishing dose-response curves and measured EC50 values.

[2] = system: mouse macrophages; test: stimulated release of TNF-α from mouse macrophages; type: cell-based
From the text: EC50 values are derived from dose-response curves for the stimulated release of TNF-α from differentiated THP-1 cells or mouse macrophages are shown beneath each appropriate structural formula of Compounds 8-12. Half maximal effective concentration (EC50) refers to the concentration of a drug, antibody or toxicant that induces a response halfway between the baseline and maximum after a specified exposure time. It is commonly used as a measure of a drug's potency.

[3] = Homo sapiens, THP-1, running text, read-out: EC50, stimulated release of TNF-α from differentiated human THP-1 cells
[4] = Mus musculus, Macrophage, read-out: EC50, stimulated release of TNF-α from mouse macrophages
[5] = Mus musculus, Macrophage, Scheme 1, footnote b, read-out: EC50 TNF-α release from mouse macrophages
[6] = Homo sapiens, THP-1, Scheme 1, footnote a, read-out: EC50 TNF-α release from human THP-1 cells

SMILES: O=C(N[C@H]1C[C@@H]1c1ccccc1)[C@@H]1CN(C(=O)c2ccc(C(=O)N3C[C@@H](C(=O)N[C@H]4C[C@@H]4c4ccccc4)[C@H](C(=O)N[C@H]4C[C@@H]4c4ccccc4)C3)cc2)C[C@H]1C(=O)N[C@H]1C[C@@H]1c1ccccc1 (racemic) [Compound 12, trans, trans-1,1′-Terephthaloylbis-(N^3,N^4-bis-(trans-2-phenylcyclopropyl)pyrrolidine-3,4-dicarboxamide)]
EC50 [1, 3]: 10 nM | efficacy of TNF-α release compared with reference agonist ([1]; versus LPS or Pam3CSK4, side-by-side): equally efficacious with LPS | EC50 [2, 4]: 100 nM

SMILES: O=C(NCCc1ccc(F)cc1)[C@H]1CN(C(=O)c2ccc(C(=O)N3C[C@H](C(=O)NCCc4ccc(F)cc4)[C@@H](C(=O)NCCc4ccc(F)cc4)C3)cc2)C[C@@H]1C(=O)NCCc1ccc(F)cc1 (racemic) [Compound 69, 1,1′-Terephthaloylbis(N^3,N^4-bis(4-fluoro-phenethyl)-yrrolidine-trans-3,4-dicarboxamide)]
EC50 [1, 3]: 100 nM

SMILES: O=C(NCCc1cccc(F)c1)[C@H]1CN(C(=O)c2ccc(C(=O)N3C[C@H](C(=O)NCCc4cccc(F)c4)[C@@H](C(=O)NCCc4cccc(F)c4)C3)cc2)C[C@@H]1C(=O)NCCc1cccc(F)c1 (racemic) [Compound 84, 1,1′-Terephthaloylbis(N^3,N^4-bis(3-fluoro-phenethyl)pyrrolidine-trans-3,4-dicarboxamide)]
EC50 ([1]; Homo sapiens, THP-1, Table 5 footnote, racemates, TNF-α release from human differentiated THP-1 cells, read-out: EC50): 1000 nM | EC50 [1, 3]: 1000 nM | fold less active (3- vs 4-fluorophenethylamide) ([1]; human THP-1 cells, racemates): > 10 fold

SMILES: O=C(NCCc1ccccc1)[C@@H]1CN(C(=O)c2ccc(C(=O)N3C[C@@H](C(=O)NCCc4ccccc4)[C@H](C(=O)N[C@H]4C[C@@H]4c4ccccc4)C3)cc2)C[C@H]1C(=O)NCCc1ccccc1 (relative stereo) [Compound 9]
activity in stimulating TNF-α release from human THP-1 cells (in words) ([1]; tested up to 5 μM where stated): inactive

SMILES: CCCCCCCCCCCCCCCCNC(=O)C1CCN(C(=O)c2ccc(C(=O)N3C[C@@H](C(=O)N[C@H]4C[C@@H]4c4ccccc4)[C@H](C(=O)N[C@H]4C[C@@H]4c4ccccc4)C3)cc2)C1 (stereo in doubt) [Compound 129, (3S,4S)-1-(4-((S)-3-(Hexadecylcarbamoyl)-pyrrolidine-1-carbonyl)benzoyl)—N^3,N^4-bis((1S,2R)-2-phenylcyclopropyl)pyrrolidine-3,4-dicarboxamide]
EC50 ([1]; table of 125-132 (one lipid side chain, R and S), human THP-1 cells, read-out: EC50 (nM) (THP-1)): 5 nM | EC50 ([2]; table of 125-132 (one lipid side chain, R and S), mouse macrophages, read-out: EC50 (nM) (mouse)): > 5000 nM

SMILES: O=C(N[C@H]1C[C@@H]1c1ccccc1)[C@@H]1CN(C(=O)c2ccc(C(=O)N3C[C@@H](C(=O)N[C@H]4C[C@@H]4c4ccccc4)[C@H](C(=O)N[C@H]4C[C@@H]4c4ccccc4)C3)cc2)C[C@H]1C(=O)N[C@H]1C[C@@H]1c1ccccc1 [Compound 3, (3S,3′S,4S,4′S)-1,1′-Terephthaloylbis(N^3,N^4-bis((1S,2R)-2-phenylcyclopropyl)pyrrolidine-3,4-dicarboxamide)]
EC50 ([2]; Macrophage, Table 1, TNF-α release from mouse macrophages, read-out: EC50 (nM) (mouse)): 1 nM | EC50 [2, 5]: 1 nM | EC50 [2, 4]: 1 nM

SMILES: O=C(NCCc1ccc(F)cc1)[C@@H]1CN(C(=O)c2ccc(C(=O)N3C[C@@H](C(=O)NCCc4ccc(F)cc4)[C@H](C(=O)NCCc4ccc(F)cc4)C3)cc2)C[C@H]1C(=O)NCCc1ccc(F)cc1 [Compound 4, (3S,3′S,4S,4′S)-1,1′-Terephthaloylbis(N^3,N^4-bis(4-fluorophenethyl)-pyrrolidine-3,4-dicarboxamide)]
EC50 ([1]; Homo sapiens, THP-1, Table 7, TNF-α release from human THP-1 cells, read-out: EC50 (nM) (THP-1)): 50 nM | EC50 [1, 3]: 50 nM | fold more potent than the all racemate ([1]; human THP-1 cells, single enantiomer versus its all racemate mixture): 3 fold | EC50 ([2]; Macrophage, Table 7, TNF-α release from mouse macrophages, read-out: EC50 (nM) (mouse)): > 5000 nM

SMILES: O=C(N[C@H]1C[C@@H]1c1ccccc1)[C@H]1CCN(C(=O)c2ccc(C(=O)N3C[C@@H](C(=O)N[C@H]4C[C@@H]4c4ccccc4)[C@H](C(=O)N[C@H]4C[C@@H]4c4ccccc4)C3)cc2)C1 [Compound 29, (3S,4S)—N^3,N^4-Bis((1S,2R)-2-phenyl-cyclopropyl)-1-(4-((S)-3-(((1S,2R)-2-phenyl-cyclopropyl)-carbamoyl)-pyrrolidine-1-carbonyl)-benzoyl)pyrrolidine-3,4-dicarboxamide]
EC50 [1, 3]: 200 nM | fold less active/potent than diprovocim-1 (3) ([1]; human THP-1 cells): 2000 fold

SMILES: O=C(CCN(CCC(=O)N[C@H]1C[C@@H]1c1ccccc1)C(=O)c1ccc(C(=O)N(CCC(=O)N[C@H]2C[C@@H]2c2ccccc2)CCC(=O)N[C@H]2C[C@@H]2c2ccccc2)cc1)N[C@H]1C[C@@H]1c1ccccc1 [Compound 34, N^1,N^1,N^4,N^4-Tetrakis(3-oxo-3-(((1S,2R)-2-phenyl-cyclopropyl)amino)propyl)terephthalamide]
activity in stimulating TNF-α release from mouse macrophages (in words) ([2]; tested up to 5 μM where stated): inactive

SMILES: O=C(NCCc1ccc(F)cc1)[C@H]1CN(C(=O)c2ccc(C(=O)N3C[C@H](C(=O)NCCc4ccc(F)cc4)[C@@H](C(=O)NCCc4ccc(F)cc4)C3)cc2)C[C@@H]1C(=O)NCCc1ccc(F)cc1 [Compound 98, (3R,3′R,4R,4′R)-1,1′-Terephthaloyl-bis(N^3,N^4-bis-(4-fluorophenethyl)pyrrolidine-3,4-dicarboxamide)]
EC50 ([1]; Homo sapiens, THP-1, running text b169, read-out: EC50, stimulated release of TNF-α from human THP-1 cells): > 5000 nM | fold less potent than the all S enantiomer 4 ([1]; human THP-1 cells): > 100 fold

SMILES: O=C(NCCc1ccc(F)cc1)[C@H]1CN(C(=O)c2ccc(C(=O)N3C[C@@H](C(=O)NCCc4ccc(F)cc4)[C@H](C(=O)NCCc4ccc(F)cc4)C3)cc2)C[C@@H]1C(=O)NCCc1ccc(F)cc1 [Compound 99, (3S,4S)-1-(4-((3R,4R)-3,4-Bis((4-fluorophen-ethyl)carbamoyl)pyrrolidine-1-carbonyl)benzoyl)—N^3,N^4-bis(4-fluorophenethyl)pyrrolidine-3,4-dicarboxamide]
EC50 [1, 3]: 70 nM

Continued, values first:

EC50 [1, 3]: 80 nM
SMILES: O=C(NCCc1ccccc1)[C@@H]1CN(C(=O)c2ccc(C(=O)N3C[C@@H](C(=O)NCCc4ccccc4)[C@H](C(=O)N[C@H]4C[C@@H]4c4ccccc4)C3)cc2)C[C@H]1C(=O)N[C@H]1C[C@@H]1c1ccccc1 (stereo in doubt) [Compound 10, trans,trans-1, 1′-Terephthaloylbis(N^3-phenethyl-N^4-(trans-2-phenylcyclopropyl)pyrrolidine-3,4-dicarboxamide)]

EC50 [1, 6]: > 5000 nM | EC50 [2, 5]: > 5000 nM
SMILES: O=C(N[C@H]1C[C@@H]1c1ccccc1)[C@H]1CN(C(=O)c2ccc(C(=O)N3C[C@H](C(=O)N[C@H]4C[C@@H]4c4ccccc4)[C@@H](C(=O)N[C@H]4C[C@@H]4c4ccccc4)C3)cc2)C[C@@H]1C(=O)N[C@H]1C[C@@H]1c1ccccc1 [Compound 19, (3R,3′R,4R,4′R)-1,1′-Terephthaloylbis(N^3,N^4-bis((1S,2R)-2-phenylcyclopropyl)pyrrolidine-3,4-dicarboxamide)]

EC50 [1, 6]: > 5000 nM | EC50 [2, 5]: > 5000 nM
SMILES: O=C(N[C@@H]1C[C@H]1c1ccccc1)[C@@H]1CN(C(=O)c2ccc(C(=O)N3C[C@@H](C(=O)N[C@@H]4C[C@H]4c4ccccc4)[C@H](C(=O)N[C@@H]4C[C@H]4c4ccccc4)C3)cc2)C[C@H]1C(=O)N[C@@H]1C[C@H]1c1ccccc1 [Compound 20, (3S,3′S,4S,4′S)-1,1′-Terephthaloylbis-(N^3,N^4-bis((1R,2S)-2-phenylcyclopropyl)pyrrolidine-3,4-dicarboxamide)]

EC50 [1, 6]: > 5000 nM | EC50 [2, 5]: > 5000 nM
SMILES: O=C(N[C@@H]1C[C@H]1c1ccccc1)[C@H]1CN(C(=O)c2ccc(C(=O)N3C[C@H](C(=O)N[C@@H]4C[C@H]4c4ccccc4)[C@@H](C(=O)N[C@@H]4C[C@H]4c4ccccc4)C3)cc2)C[C@@H]1C(=O)N[C@@H]1C[C@H]1c1ccccc1 [Compound 21, (3R,3′R,4R,4′R)-1,1′-Terephthaloylbis-(N^3,N^4-bis((1R,2S)-2-phenylcyclopropyl)pyrrolidine-3,4-dicarboxamide)]

EC50 [1, 6]: 3 nM | EC50 [2, 5]: 150 nM
SMILES: O=C(N[C@H]1C[C@@H]1c1ccccc1)[C@H]1CN(C(=O)c2ccc(C(=O)N3C[C@@H](C(=O)N[C@H]4C[C@@H]4c4ccccc4)[C@H](C(=O)N[C@H]4C[C@@H]4c4ccccc4)C3)cc2)C[C@@H]1C(=O)N[C@H]1C[C@@H]1c1ccccc1 [Compound 22, (3S,4S)-1-(4-((3R,4R)-3,4-Bis(((1S,2R)-2-phenylcyclopropyl)carbamoyl)pyrrolidine-1-carbonyl)-benzoyl)—N^3,N^4-bis((1S,2R)-2-phenylcyclopropyl)-pyrrolidine-3,4-dicarboxamide]
